# From patent US8202863B2 (Aventis Pharmaceuticals Inc., priority 2005, dated 2012)
# Experiments:
# [1] = target: Hematopoietic PGD2 Synthase (Homo sapiens, UniProt O60760); test: Fluorescence Polarization Assay (Assay 1); assay type: binding; settings: assigned
# Text: The compounds of the present invention can be tested for enzymatic inhibiting activity against PGD2 Synthase according to either one of the following assays.
# Assay 1: Fluorescence Polarization Assay
# As described in PCT publication WO 2004/016223, Example II.
# PGDS = settings: literature report; cited from earlier work
# guinea pig = guinea pig model; cited from earlier work
# rat = rat model; cited from earlier work
# Chain of Hematopoietic PGD2 Synthase (O60760 whole entry): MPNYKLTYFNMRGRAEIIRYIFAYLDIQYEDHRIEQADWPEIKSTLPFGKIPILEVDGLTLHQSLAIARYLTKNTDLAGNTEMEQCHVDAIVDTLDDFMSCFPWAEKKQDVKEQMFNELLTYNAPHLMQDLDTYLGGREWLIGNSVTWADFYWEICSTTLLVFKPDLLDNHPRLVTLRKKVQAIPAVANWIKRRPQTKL
IC50 [1],SMILES,PGDS inhibition (PGDS),antiasthmatic effect (guinea pig),antiasthmatic effect (rat)
4.96 µM,"O=C(Nc1ccccc1)c1cnc(C2CCCCC2)nc1 [Example 114, 2-Cyclohexyl-pyrimidine-5-carboxylic acid phenylamide]",–,–,–
–,c1ccc(C(OC2CCN(CCCc3nn[nH]n3)CC2)c2ccccc2)cc1 [HQL-79],weak PGDS inhibitor,antiasthmatic,antiasthmatic
